This data set concerns partial liver transplant. Kind of data set: Liver regeneration-promoting effect in rat 30% orthotopic partial liver transplantation. The note with it: for Relative liver gain: (liver weight on day 5) / (liver weight on day 0); for Relative liver gain / Liver weight gain: transfusion 50 ml/kg/day up to day 5, mean±SD; for Liver weight gain: (liver weight on day 5) − (liver weight on day 0). The class given is in vivo. Here is the method: Male Wistar rats at 8 weeks of age (240-280g; 8-9 animals per group) were used for 30% orthotopic partial liver transplantation. Isolation of the liver from donors was performed as follows. Animals were abdominally incised under ether anesthesia and about 70% of the liver was resected and the common bile duct and arteries were separated immediately before starting liver perfusion with cold physiological saline from the portal vein. After starting perfusion, the remaining liver with the portal vein and the posterior vena cava-was removed from the donor animal. Recipients were abdominally incised under Nembutal anesthesia and the whole liver was resected and the upper end of the posterior vena cava of the graft was continuously sutured (7-0 proline) with the proximal end of the posterior vena cava of the recipients. The donor posterior vena cava of the graft was sutured end-to-end with that of the recipient, and the portal vein and common bile duct of the graft were anastomosed with those of the recipient, respectively, by the cuff technique. The operation period was 45 minutes on average, the […] period was within 900 seconds, and the total period for cold-storing the graft was 1 hour. Immediately after the operation was completed, a catheter was inserted from the jugular vein. The catheter was passed through the subcutaneous tunnel across both scapulae, and connected to a swivel through a protective coil after a harness was put on the animal. Rats were transferred to a metabolic cage and divided into the following two groups and continuously pumped with the transfusion formula at an administration rate of 50 ml/kg/day up to day 5. Valine group: An aqueous solution of L-valine (Japanese Pharmacopoeia) at 3.376% was transfused in combination with glucose at 5% on the day of operation and 20% on days 1-5. Control group: A solution of a 10% amino acid blend formula (Moripron F® made by Roussel Morishita Co., Ltd.) diluted in distilled water at a total nitrogen level equivalent to that of the valine group was transfused in combination with glucose at 5% on the day of operation and 20% on days 1-5. Animals were given free access to normal feed and water. On day 5, animals were abdominally incised under ether anesthesia and blood was collected from the abdominal aorta and the liver was separated after bleeding. Serum protein (TP), albumin (ALB), GOT, GPT and LDH and the liver weight were determined. The resected liver was fixed with formalin to prepare a hematoxylin-eosin stained sample for histological tests. The measurement results were expressed in mean±SD and statistically analyzed by the Mann-Whitney U test to show a significant difference if p<0.05. Liver weight gain and relative liver gain were determined as morphologic indications of the liver-regenerating effect. Here, the liver weight gain means (liver weight on day 5)-(liver weight on day 0), and the relative liver gain means (liver weight on day 5)/(liver weight on day 0). Not the liver weight itself but the liver weight gain was chosen as indication because liver transplants vary in weight and the difference between the weight of each liver transplant (weight on day 0) and the weight of the regenerated transplant (weight on day 5) more appropriately indicates changes in the transplant.

Regarding `CC(C)[C@H](N)C(=O)O` [Valine, L-valine], the Relative liver gain is listed as 2.24 ± 0.18 and the “Liver weight gain” value is listed as 3.88 ± 0.66 g. Under “listed as valine”, the Relative liver gain is recorded as 2.24±0.18 and the “Liver weight gain” value stood at 3.88 ± 0.66 g. Also, under “day 5, hematoxylin-eosin stained sample”, the “Histopathological tests of the regenerated liver” value is “No abnormal observation”. Also, the “Edema or necrosis of hepatocytes” value (day 5, histology of regenerated liver) is recorded as “Neither control group nor valine group showed edema or necrosis”. For the same compound, the “Liver weight (g) on day 5” value (male Wistar rats, continuous i.v. transfusion 50 ml/kg/day up to day 5, mean±SD) is given as 7.05 ± 0.99 g. Besides, where the note is “male Wistar rats, graft weight on day of transplantation (baseline), mean±SD”, the “Liver weight (g) on day 0” value was 3.16 ± 0.45 g. Also, the “Biochemical blood tests (TP, ALB, GOT, GPT, LDH)” value (serum on day 5, valine group vs control group) was “No significant difference”.
